Data taken from US20020137929A1, “1 - (3-heterocyclylphenyl) isothiourea, -isourea, -guanidine and -amidine herbicidal agents” (Intellectual Property Department, BASF Aktiengesellschaft, priority 1998, published 2002).

How the values were obtained:
[1] = system: IPOHE (Morningglory, Ivyleaf); assay: Preemergence herbicidal evaluation; assay type: in vivo, Ipomoea hederacea; details: rated 4-5 weeks after treatment
Procedure, shortened: (§1)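 Greenhouse preemergence test: seed-soil mix sown on ~1 inch soil; aqueous acetone spray at equivalent of ~0.0156–0.500 kg/ha; greenhouse-held and watered; scored 0–9 visually at 4–5 weeks.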

[2] = system: ECHORC (Watergrass (Calif.)); assay: Preemergence weed control under flooded paddy conditions; assay type: in vivo, Echinochloa oryzoides; details: rated 3-4 weeks after treatment
Procedure, shortened: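 Seeds or propagules sown in top 0.5 cm of silt loam soil, flooded 1.5 to 3 cm above surface throughout. Compound in 50/50 v/v aqueous/acetone pipetted into flood water at about 0.0313 to 0.500 kg/ha. Visual 0-9 rating versus control after three to four weeks in greenhouse.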

ABUTH (Velvetleaf) [3] = assay: Postemergence herbicidal evaluation; assay type: in vivo, Abutilon theophrasti; details: postemergence
Procedure, shortened: (§2)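 Rate range approx. 0.0156–0.500 kg/ha. Foliar application at 40 psi to ~2-week seedlings; surfactant 0.5% TWEEN 20 in 50/50 acetone/water. Evaluation 4–5 wk post-treatment by 0–9 visual injury score, means of replicate tests.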

AMBEL (Ragweed, Common) = assay: Preemergence herbicidal evaluation; assay type: in vivo, Ambrosia artemisifolia; details: rated 4-5 weeks after treatment
Procedure, shortened: as §1

CYPIR (Rice Flatsedge) = assay: Postemergence weed control under flooded paddy conditions; assay type: in vivo, Cyperus iria; details: postemergence weeds, 3-4 weeks after treatment
Procedure, shortened: (§3)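 Weeds 3 to 5 cm tall and rice seedlings at the 1.5 to 2.5 leaf stage were flooded, with water held 1.5 to 3 cm above the soil. Compounds in 50/50 v/v aqueous/acetone went into the flood water at about 0.0313 to 0.500 kg/ha. Visual 0-9 ratings versus control were made 3 to 4 weeks later.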

[4] = system: IPOHE (Morningglory, Ivyleaf); assay: Postemergence herbicidal evaluation; assay type: in vivo, Ipomoea hederacea; details: postemergence
Procedure, shortened: as §2

SETVI (Foxtail, Green) = assay: Postemergence herbicidal evaluation; assay type: in vivo, Setaria viridis; details: postemergence
Procedure, shortened: as §2

[5] = system: GLXMAW (Soybean, Williams); assay: Postemergence herbicidal evaluation; assay type: in vivo, Glycine max, (L.) Merr. cv Williams; details: postemergence
Procedure, shortened: as §2

CASOB (Sicklepod) = assay: Preemergence herbicidal evaluation; assay type: in vivo, Cassia obtusifolia; details: rated 4-5 weeks after treatment
Procedure, shortened: as §1

ABUTH (Velvetleaf) [6] = assay: Preemergence herbicidal evaluation; assay type: in vivo, Abutilon theophrasti; details: rated 4-5 weeks after treatment
Procedure, shortened: as §1

ZEAMX (Corn, Field) = assay: Postemergence herbicidal evaluation; assay type: in vivo, Zea mays; details: postemergence
Procedure, shortened: as §2

[7] = system: ECHORC (Watergrass (Calif.)); assay: Postemergence weed control under flooded paddy conditions; assay type: in vivo, Echinochloa oryzoides; details: postemergence weeds, 3-4 weeks after treatment
Procedure, shortened: as §3

ECHCG (Barnyardgrass) = assay: Preemergence herbicidal evaluation; assay type: in vivo, Echinochloa crus-galli; details: rated 4-5 weeks after treatment
Procedure, shortened: as §1

Structure (SMILES): CCOC(=O)CN1C(=O)C(Cc2ccccc2)SC1=Nc1cc(-n2c(=O)cc(C(F)(F)F)n(C)c2=O)c(F)cc1Cl (centres unmarked) [Compound 24, Ethyl 5-benzyl-2-{{2-chloro-5-[3,6-dihydro-3-methyl-2,6-dioxo-4-(trifluoromethyl)-1(2H)-pyrimidinyl]-4-fluorophenyl}imino}-4-oxo-3-thiazolidineacetate]
- IPOHE preemergence herbicidal rating ([1]; rate 0.0625 kg/ha): 0.0
- IPOHE preemergence herbicidal rating ([1]; rate 0.1250 kg/ha): 0.0
- IPOHE preemergence herbicidal rating ([1]; rate 0.2500 kg/ha): 0.0
- Herbicidal rating ECHORC ([2]; 0.0313 kg/ha): 4.0
- Herbicidal rating ECHORC ([2]; 0.0625 kg/ha): 9.0
- Herbicidal rating ECHORC ([2]; 0.1250 kg/ha): 9.0
- Herbicidal rating ECHORC ([2]; 0.2500 kg/ha): 9.0
- ABUTH herbicidal rating (ABUTH (Velvetleaf) [3]; rate 0.0158 kg/ha): 9.0
- ABUTH herbicidal rating (ABUTH (Velvetleaf) [3]; rate 0.0315 kg/ha): 9.0
- ABUTH herbicidal rating (ABUTH (Velvetleaf) [3]; rate 0.0630 kg/ha): 9.0
- AMBEL preemergence herbicidal rating (AMBEL (Ragweed, Common); rate 0.0625 kg/ha): 0.0
- AMBEL preemergence herbicidal rating (AMBEL (Ragweed, Common); rate 0.1250 kg/ha): 0.0
- AMBEL preemergence herbicidal rating (AMBEL (Ragweed, Common); rate 0.2500 kg/ha): 2.0
- Herbicidal rating CYPIR (CYPIR (Rice Flatsedge); rate 0.0313 kg/ha): 0.0
- Herbicidal rating CYPIR (CYPIR (Rice Flatsedge); rate 0.0625 kg/ha): 0.0
- Herbicidal rating CYPIR (CYPIR (Rice Flatsedge); rate 0.1250 kg/ha): 0.0
- Herbicidal rating CYPIR (CYPIR (Rice Flatsedge); rate 0.2500 kg/ha): 0.0
- IPOHE herbicidal rating ([4]; rate 0.0158 kg/ha): 2.0
- IPOHE herbicidal rating ([4]; rate 0.0315 kg/ha): 9.0
- SETVI herbicidal rating (SETVI (Foxtail, Green); rate 0.0158 kg/ha): 0.0
- SETVI herbicidal rating (SETVI (Foxtail, Green); rate 0.0315 kg/ha): 0.0
- SETVI herbicidal rating (SETVI (Foxtail, Green); rate 0.0630 kg/ha): 0.0
- GLXMAW herbicidal rating ([5]; rate 0.0158 kg/ha): 4.0
- GLXMAW herbicidal rating ([5]; rate 0.0315 kg/ha): 5.0
- GLXMAW herbicidal rating ([5]; rate 0.0630 kg/ha): 5.5
- CASOB preemergence herbicidal rating (CASOB (Sicklepod); rate 0.0625 kg/ha): 0.0
- CASOB preemergence herbicidal rating (CASOB (Sicklepod); rate 0.1250 kg/ha): 0.0
- CASOB preemergence herbicidal rating (CASOB (Sicklepod); rate 0.2500 kg/ha): 0.0
- ABUTH preemergence herbicidal rating (ABUTH (Velvetleaf) [6]; rate 0.0625 kg/ha): 4.0
- ABUTH preemergence herbicidal rating (ABUTH (Velvetleaf) [6]; rate 0.1250 kg/ha): 9.0
- ABUTH preemergence herbicidal rating (ABUTH (Velvetleaf) [6]; rate 0.2500 kg/ha): 9.0
- ZEAMX herbicidal rating (ZEAMX (Corn, Field); rate 0.0158 kg/ha): 4.0
- ZEAMX herbicidal rating (ZEAMX (Corn, Field); rate 0.0315 kg/ha): 4.5
- ZEAMX herbicidal rating (ZEAMX (Corn, Field); rate 0.0630 kg/ha): 5.5
- Herbicidal rating ECHORC ([7]; rate 0.0313 kg/ha): 4.0
- Herbicidal rating ECHORC ([7]; rate 0.0625 kg/ha): 9.0
- Herbicidal rating ECHORC ([7]; rate 0.1250 kg/ha): 9.0
- Herbicidal rating ECHORC ([7]; rate 0.2500 kg/ha): 9.0
- ECHCG preemergence herbicidal rating (ECHCG (Barnyardgrass); rate 0.0625 kg/ha): 0.0
- ECHCG preemergence herbicidal rating (ECHCG (Barnyardgrass); rate 0.1250 kg/ha): 0.0
- ECHCG preemergence herbicidal rating (ECHCG (Barnyardgrass); rate 0.2500 kg/ha): 0.0
